Assay results taken from US5281628A, “9-amino-7-(substituted)-6-demethyl-6-deoxytetracyclines” (American Cyanamid Company, priority 1991, dated 1994).
Structures can show the parent of a compound that is named as a salt. Where two headings read alike, the source gives them in different places.

Key:
[1] = system: Coagulase negative staphylococci CI 535; experiment: MIC, microtiter broth dilution; format: cell-based; conditions: 18 h
Experimental: (§1) The minimum inhibitory concentration (MIC), the lowest concentration of the antibiotic which inhibits growth of the test organism, is determined by the microtiter broth dilution method using 0.1 ml Muller-Hinton II broth (Baltimore Biological Laboratories) per well. A suitable oxygen scavenger (i.e., cysteine or dithiothreitol) is added to the assay medium for the testing of compounds according to Formula I because of the sensitivity of those compounds to oxidation. An inoculum level of 1-5×10^5 CFU/ml and a range of antibiotic concentrations (32 0.004 μg/ml) are used.

[2] = system: Coagulase negative staphylococci CI 664; experiment: MIC, microtiter broth dilution; format: cell-based; conditions: 18 h
Experimental: as §1

[3] = system: E. coli ATCC 25922; experiment: MIC, microtiter broth dilution; format: cell-based; conditions: Escherichia coli, ATCC25922, 18 h
Experimental: as §1

[4] = system: E. coli UBMS 90-5 (tetracycline-sensitive); experiment: MIC, microtiter broth dilution; format: cell-based; conditions: Escherichia coli, 18 h
Experimental: as §1

[5] = system: E. faecalis 12201 (vancomycin-resistant); experiment: MIC, microtiter broth dilution; format: cell-based; conditions: Enterococcus faecalis, 18 h
Experimental: as §1

[6] = system: E. faecalis ATCC 29212; experiment: MIC, microtiter broth dilution; format: cell-based; conditions: Enterococcus faecalis, ATCC29212, 18 h
Experimental: as §1

[7] = system: E. faecalis CI 2735; experiment: MIC, microtiter broth dilution; format: cell-based; conditions: Enterococcus faecalis, CI2735, 18 h
Experimental: as §1

[8] = system: P. aeruginosa ATCC 27853; experiment: MIC, microtiter broth dilution; format: cell-based; conditions: Pseudomonas aeruginosa, ATCC27853, 18 h
Experimental: as §1

[9] = system: S. aureus ATCC 29213; experiment: MIC, microtiter broth dilution; format: cell-based; conditions: Staphylococcus aureus, ATCC29213, 18 h
Experimental: as §1

[10] = system: S. aureus CI 2371 (methicillin-resistant); experiment: MIC, microtiter broth dilution; format: cell-based; conditions: Staphylococcus aureus, 18 h
Experimental: as §1

[11] = system: S. aureus CI 3300 (methicillin-resistant); experiment: MIC, microtiter broth dilution; format: cell-based; conditions: Staphylococcus aureus, 18 h
Experimental: as §1

[12] = system: S. aureus IVES 1983 (methicillin-resistant); experiment: MIC, microtiter broth dilution; format: cell-based; conditions: Staphylococcus aureus, 18 h
Experimental: as §1

[13] = system: S. aureus IVES 2943 (methicillin-resistant); experiment: MIC, microtiter broth dilution; format: cell-based; conditions: Staphylococcus aureus, 18 h
Experimental: as §1

[14] = system: S. aureus UBMS 88-4 (tetracycline-sensitive); experiment: MIC, microtiter broth dilution; format: cell-based; conditions: Staphylococcus aureus, 18 h
Experimental: as §1

[15] = system: S. aureus UBMS 90-3 (tetracycline-sensitive); experiment: MIC, microtiter broth dilution; format: cell-based; conditions: Staphylococcus aureus, 18 h
Experimental: as §1

[16] = system: S. haemolyticus AVAH 88-3; experiment: MIC, microtiter broth dilution; format: cell-based; conditions: Staphylococcus haemolyticus, AVAH883, 18 h
Experimental: as §1

[17] = system: S. marcescens FPOR 87-33; experiment: MIC, microtiter broth dilution; format: cell-based; conditions: Serratia marcescens, FPOR8733, 18 h
Experimental: as §1

[18] = system: E. coli 311 (sens); experiment: Acute lethal infections in mice; format: in vivo; conditions: Escherichia coli, sc, 168 h, Subcutaneous, Single Dose, 7 day survival
Experimental: (§2) The therapeutic effects of tetracyclines are determined against acute lethal infections with various staphylococcal and E. coli strains. Female mice, strain CD-1 Charles River Laboratories, (20±2 grams) are challenged by an intraperitoneal injection of sufficient bacteria (suspended in broth or hog gastric mucin) to kill non-treated controls within 24-48 hours. Antibacterial agents, contained in 0.5 ml of 0.2% aqueous agar, are administered subcutaneously or orally 30 minutes after infection. When an oral dosing schedule is used, animals are deprived of food for 5 hours before and 2 hours after infection. Five mice are treated at each dose level. The 7 day survival ratios from three separate tests are pooled for calculation of median effective dose (ED50).

[19] = system: E. coli UBMS 90-4 (tetM); experiment: Acute lethal infections in mice; format: in vivo; conditions: Escherichia coli, sc, 168 h
Experimental: as §2

[20] = system: S. aureus Smith (sens); experiment: Acute lethal infections in mice; format: in vivo; conditions: Staphylococcus aureus, 168 h, Single Dose, 7 day survival
Experimental: as §2

[21] = system: S. aureus UBMS 90-1 (tetM); experiment: Acute lethal infections in mice; format: in vivo; conditions: Staphylococcus aureus, sc, 168 h
Experimental: as §2

[22] = system: S. aureus UBMS 90-2 (tetM); experiment: Acute lethal infections in mice; format: in vivo; conditions: Staphylococcus aureus, 168 h
Experimental: as §2

[23] = in the presence of cysteine (0.05%)

CN(C)c1cc(N)c(O)c2c1C[C@H]1C[C@H]3[C@H](N(C)C)C(O)=C(C(N)=O)C(=O)[C@@]3(O)C(O)=C1C2=O [A, 9-Amino-7-(dimethylamino)-6-demethyl-6-deoxytetracycline hydrochloride]
MIC [1, 23]: 1 µg/mL | MIC [2, 23]: 0.003 µg/mL | MIC [3, 23]: 0.25 µg/mL | MIC [4, 23]: 0.25 µg/mL | MIC [5, 23]: 0.5 µg/mL | MIC [6, 23]: 0.06 µg/mL | MIC [7, 23]: 0.5 µg/mL | MIC [8, 23]: 2 µg/mL | MIC [9, 23]: 0.008 µg/mL | MIC [10, 23]: 0.5 µg/mL | MIC [11, 23]: 0.25 µg/mL | MIC [12, 23]: 0.5 µg/mL | MIC [13, 23]: 0.5 µg/mL | MIC [14, 23]: 0.015 µg/mL | MIC [15, 23]: 0.015 µg/mL | MIC ([16]; S. haemolyticus AVAH 88-3, in the presence of cysteine (0.05%), read-out: MIC): 0.06 µg/mL | MIC [17, 23]: 4 µg/mL | ED50 [18]: 2.8 mg/kg | ED50 [19]: 24 mg/kg | ED50 ([20]; Oral): 0.81 mg/kg | ED50 ([20]; sc, Subcutaneous): 0.34 mg/kg | ED50 [21]: 0.3 mg/kg | ED50 ([22]; po): 1.6 mg/kg | ED50 ([22]; sc): 0.53 mg/kg

CN(C)c1ccc(O)c2c1C[C@H]1C[C@H]3[C@H](N(C)C)C(O)=C(C(N)=O)C(=O)[C@@]3(O)C(O)=C1C2=O [B, 7-(Dimethylamino)-6-demethyl-6-deoxytetracycline hydrochloride]
MIC ([1]; no cysteine stated): 8 µg/mL | MIC ([2]; no cysteine stated): 0.015 µg/mL | MIC ([3]; no cysteine stated): 0.25 µg/mL | MIC ([4]; no cysteine stated): 0.5 µg/mL | MIC ([5]; no cysteine stated): 4 µg/mL | MIC ([6]; no cysteine stated): 0.25 µg/mL | MIC ([7]; no cysteine stated): 4 µg/mL | MIC ([8]; no cysteine stated): 4 µg/mL | MIC ([9]; no cysteine stated): ≤ 0.004 µg/mL | MIC ([10]; no cysteine stated): 4 µg/mL | MIC ([11]; no cysteine stated): 8 µg/mL | MIC ([12]; no cysteine stated): 1 µg/mL | MIC ([13]; no cysteine stated): 1 µg/mL | MIC ([14]; no cysteine stated): 0.008 µg/mL | MIC ([15]; no cysteine stated): 0.015 µg/mL | MIC [16]: 0.12 µg/mL | MIC ([17]; no cysteine stated): 2 µg/mL | ED50 [18]: 3.1 mg/kg | ED50 [19]: > 256 mg/kg | ED50 ([20]; Oral): 0.53 mg/kg | ED50 ([20]; sc, Subcutaneous): 0.32 mg/kg | ED50 [21]: 1.7 mg/kg | ED50 ([22]; po): 1.8 mg/kg | ED50 ([22]; sc): 1.8 mg/kg
